Reference: patent US9725460B2, “Oridonin analogs, compositions, and methods related thereto” (THE BOARD OF REGENTS OF THE UNIVERSITY OF TEXAS SYSTEM, priority 2013, dated 2017)
Where two headings read alike, the source gives them in different places.

Legend:
Conditions in all cases: Homo sapiens
[1] = tested on: MCF-7; assay: MTT cancer cell proliferation assay, MCF-7; format: cell-based, human
Protocol: (§1) In Vitro Determination of Effects of Synthesized Diterpenoids on Cancer Cell Proliferation. Breast cancer cell lines MCF-7, MDA-MB-231, […] and MCF/ADR were seeded in 96-well plates at a density of 1×10^4 cells/well and treated with DMSO and 0.01, 0.1, 1, 5, 10, and 100 μM of individual compound for 48 h, and then 20 μL of 3-(4,5-dimethylthiazol-2-yl)-2,5-diphenyltetrazolium bromide (MTT) (5 mg/mL in PBS) was added to each well and further incubated for another 4 h. Then MTT solution was removed, and 150 μL of DMSO was added to each well. Absorbance of all wells was determined by measuring OD at 550 nm after a 10 min incubation on a 96-well GlowMaxate absorbance reader (Promega, Madison, Wis.). Each individual compound was tested in quadruplicate wells for each concentration.
(§2) The growth inhibitory effects of the newly generated pyran-fused diterpenoids were evaluated in four breast cancer cell lines MCF-7 (ER-positive), MDAMB-231 (ER-negative and triple-negative), MDA-MB-468 (ER-negative and triple-negative) as well as MCF-7/ADR (adriamycin-resistant) using MTT assays as described in the Experimental Section.

[2] = tested on: Panc-1; assay: Cancer cell proliferation assay, Panc-1; format: cell-based
Protocol: (§3) In Vitro Determination of Effects of Synthesized Diterpenoids on Cancer Cell Proliferation. […] Then MTT solution was removed, and 150 μL of DMSO was added to each well. Absorbance of all wells was determined by measuring OD at 550 nm after a 10 min incubation on a 96-well GlowMaxate absorbance reader (Promega, Madison, Wis.). Each individual compound was tested in quadruplicate wells for each concentration.

[3] = tested on: MDA-MB-231; assay: MTT cancer cell proliferation assay, MDA-MB-231; format: cell-based, human
Protocol: as §1, §2

[4] = tested on: AsPC1; assay: Cancer cell proliferation assay, AsPC1; format: cell-based
Protocol: as §3

[5] = MCF7, read-out: Antiproliferative effect MCF-7 (IC50)
[6] = MCF7, read-out: IC50 (μM) MCF-7
[7] = PANC-1, read-out: IC50 (μM) Panc-1
[8] = MDA-MB-231, read-out: Antiproliferative effect MDA-MB-231 (IC50)
[9] = MDA-MB-231, read-out: IC50 (μM) MDA-MB-231
[10] = ASPC1, read-out: IC50 (μM) AsPC1
[11] = MCF7, Table 2a, A-ring modified analogues, read-out: IC50 (μM) MCF-7
[12] = PANC-1, Table 2a, A-ring modified analogues, read-out: IC50 (μM) Panc-1
[13] = MDA-MB-231, Table 2a, A-ring modified analogues, read-out: IC50 (μM) MDA-MB-231
[14] = ASPC1, Table 2a, A-ring modified analogues, read-out: IC50 (μM) AsPC1
[15] = MCF7, Table 1b, triazole substituted analogues, mean of three experiments, read-out: IC50 (μM) MCF-7
[16] = MDA-MB-231, Table 1b, triazole substituted analogues, mean of three experiments, read-out: IC50 (μM) MDA-MB-231

IC50 [1, 15] [µM] | IC50 [3, 16] [µM] | Structure (SMILES) | IC50 [1, 6] [µM] | IC50 [2, 7] [µM] | IC50 [3, 9] [µM] | IC50 [4, 10] [µM] | other results
 |  | C=C1C(=O)[C@@]23C(=O)[C@@H](O)[C@@H]4C(C)(C)[C@@H]5OC[C@]4(C(=O)/C5=C\O)[C@@H]2CC[C@@H]1[C@H]3O [CYD-7-5] | > 10 | > 10 | > 10 | > 10 | IC50 [1, 5]: > 30 µM; IC50 [3, 8]: > 30 µM
 |  | C=C1C(=O)[C@@]23[C@@H]4OC(C)(C)OC25OC[C@]2(C=CCC(C)(C)[C@H]2[C@@H]5O)[C@@H]3CC[C@@H]14 [CYD-6-75, (3S,3aR,3a^1R,6aR,7S,7aR,11aR,11bS)-7-hydroxy-5,5,8,8-tetramethyl-15-methylene-2,3,3a,7,7a,8,9,11b-octahydro-1H-6a,11a-(epoxymethano)-3,3a^1-ethanophenanthro[1,10-de][1,3]dioxin-14-one] |  |  |  |  | IC50 [1, 11]: 0.95 µM; IC50 [2, 12]: 7.25 µM; IC50 [3, 13]: 3.95 µM; IC50 [4, 14]: 6.78 µM
2 | 1.1 | C=C1C(=O)[C@@]23[C@@H]4OC(C)(C)OC25OC[C@]2([C@H](O)[C@@H](n6cc(-c7ccc(C(C)(C)C)cc7)nn6)CC(C)(C)[C@H]2[C@@H]5O)[C@@H]3CC[C@@H]14 [CYD-8-3] |  |  |  |  | 
2.1 | 1.8 | C=C1C(=O)[C@]23[C@H](O)[C@H]1CC[C@H]2[C@@]12COC3(O)[C@@H](O)[C@@H]1C(C)(C)C=C[C@@H]2n1cc(-c2ccccc2)nn1 [CYD-7-90] |  |  |  |  | 
 |  | C=C1C(=O)[C@@]23C(=O)[C@@H](O)[C@@H]4C(C)(C)[C@@H]5OC[C@]4(C(=O)/C5=C/OC)[C@@H]2CC[C@@H]1[C@H]3O [CYD-7-13] |  |  |  |  | IC50 ([1]; MCF7, Table 1c, dienone analogues, mean ± SE of three experiments, read-out: Antiproliferative effect MCF-7 (IC50)): 10.2 ± 3.07 µM; IC50 ([3]; MDA-MB-231, Table 1c, dienone analogues, mean ± SE of three experiments, read-out: Antiproliferative effect MDA-MB-231 (IC50)): > 30 µM
0.38 | 0.48 | C=C1C(=O)[C@@]23[C@@H]4OC(C)(C)OC25OC[C@]2([C@@H](n6cc(-c7ccccc7)nn6)C=CC(C)(C)[C@H]2[C@@H]5O)[C@@H]3CC[C@@H]14 [CYD-7-86] |  |  |  |  | 
2.3 | 1.8 | C=C1C(=O)[C@]23[C@H](O)[C@H]1CC[C@H]2[C@]12C=C[C@@H](n4cc(-c5ccccc5)nn4)C(C)(C)[C@H]1[C@H](O)C3(O)OC2 [CYD-7-82] |  |  |  |  | 
 |  | C=C1C(=O)[C@]23[C@H](O)[C@H]1CC[C@H]2[C@@]12COC3(O)[C@@H](O)[C@@H]1C(C)(C)CC1=C2O[C@]2(CC1)CC(C)(C)[C@H]1[C@H](O)[C@]3(O)OC[C@]1(C2=O)[C@@H]1CC[C@H]2C(=C)C(=O)[C@]13[C@@H]2O [CYD-5-40-2, (2R,4aR,5S,6S,6aR,6a′R,7′S,8′S,8a′R,9S,11aS,11bS,11′S,13a′S,13b′S,14R,16′R)-5,6,7′,8′,14,16′-hexahydroxy-4,4,6′,6′-tetramethyl-8,10′-dimethylene-4,4a,5,6,6′,6a′,7′,8′,9,10,11,11a,11′,12′,13′,13a′-hexadecahydro-3′H-spiro[6,11b-(epoxymethano)-6a,9-methanocyclohepta[a]naphthalene-2,2′-8,13b-(epoxymethano)-8a,11-methanocyclohepta[3,4]benzo[1,2-h]chromene]-1,7,9′(3H,4′H,5′H,8H,10′H)-trione] | 4.82 | 8.07 | 9.64 | 10.2 | 
 |  | C=C1C(=O)[C@@]23[C@@H]4OC(C)(C)OC25OC[C@]2(C=C[C@H](O)C(C)(C)[C@H]2[C@@H]5O)[C@@H]3CC[C@@H]14 [CYD-6-81, (3S,3aR,3a^1R,6aR,7S,7aS,9S,11aR,11bS)-7,9-dihydroxy-5,5,8,8-tetramethyl-15-methylene-2,3,3a,7,7a,8,9,11b-octahydro-1H-6a,11a-(epoxymethano)-3,3a^1-ethanophenanthro[1,10-de][1,3]dioxin-14-one] |  |  |  |  | IC50 [1, 11]: 2.56 µM; IC50 [2, 12]: 5.24 µM; IC50 [3, 13]: 10.5 µM; IC50 [4, 14]: > 10 µM
 |  | C=C1C(=O)[C@]23[C@H](O)[C@H]1CC[C@H]2[C@]12C=CC(=O)C(C)(C)[C@H]1[C@H](O)[C@@]3(O)OC2 [CYD-6-93, (4aS,5S,6S,6aR,9S,11aS,11bR,14R)-5,6,14-trihydroxy-4,4-dimethyl-8-methylene-4,4a,5,6,9,10,11,11a-octahydro-3H-6,11b-(epoxymethano)-6a,9-methanocyclohepta[a]naphthalene-3,7(8H)-dione] | 0.71 | 9.67 | 10.3 | 10.2 | IC50 [1, 5]: 3.48 ± 2.16 µM; IC50 [3, 8]: 9.39 ± 0.48 µM
1.9 | 3.5 | C=C1C(=O)[C@]23[C@H](O)[C@H]1CC[C@H]2[C@@]12COC3(O)[C@@H](O)[C@@H]1C(C)(C)C[C@H](n1cc(-c3ccc(C(C)(C)C)cc3)nn1)[C@H]2O [CYD-8-5] |  |  |  |  | 
 |  | C=C1C(=O)[C@]23[C@H](O)[C@H]1CC[C@H]2[C@]12C=CCC(C)(C)[C@H]1[C@H](O)[C@@]3(O)OC2 [CYD-6-82, (4aR,5S,6S,6aR,9S,11aS,11bR,14R)-5,6,14-trihydroxy-4,4-dimethyl-8-methylene-4,4a,5,6,9,10,11,11a-octahydro-3H-6,11b-(epoxymethano)-6a,9-methanocyclohepta[a]naphthalen-7(8H)-one] | 0.79 | 1.19 | 3.9 | 1.09 | 
 |  | C=C1C(=O)[C@]23[C@H](O)[C@H]1CC[C@H]2[C@@]12COC3(O)[C@@H](O)[C@@H]1C(C)(C)CC13CC[C@]4(CC(C)(C)[C@H]5[C@H](O)[C@]6(O)OC[C@]5(C4=O)[C@@H]4CC[C@H]5C(=C)C(=O)[C@]46[C@@H]5O)OC12O3 (stereo partly drawn) [CYD-6-39, (2R,4aR,4a′R,5′S,6aR,6′S,6a′R,7S,8S,8aR,9′S,11S,11a′S,11b′S,13aS,13bS,13cR,14′R,17R)-5′,6′,7,8,14′,17-hexahydroxy-4′,4′,6,6-tetramethyl-8′,10-dimethylenehexadecahydro-3H-spiro[4a,13c-epoxy-8,13b-(epoxymethano)-8a,11-methanocyclohepta[3,4]benzo[1,2-h]chromene-2,2′-6,11b-(epoxymethano)-6a,9-methanocyclohepta[a]naphthalene]-1′,7′,9(3′H,4H,5H,8′H,10H)-trione] |  |  |  |  | IC50 [1, 11]: > 10 µM; IC50 [2, 12]: > 10 µM; IC50 [3, 13]: > 10 µM; IC50 [4, 14]: 104 µM
 |  | C=C1C(=O)[C@@]23[C@@H]4OC(C)(C)OC25OC[C@]2(C(=O)/C(=C\N(C)C)CC(C)(C)[C@H]2[C@@H]5O)[C@@H]3CC[C@@H]14 [CYD-6-77, (3S,3aR,3a^1R,6aR,7S,7aR,11aS,11bS,Z)-10-((dimethylamino)methylene)-7-hydroxy-5,5,8,8-tetramethyl-15-methyleneoctahydro-1H-6a,11a-(epoxymethano)-3,3a^1-ethanophenanthro[1,10-de][1,3]dioxine-11,14(2H)-dione] | 9.07 | > 10 | 165 | 11.8 | 
 |  | C=C1C(=O)[C@]23[C@H](O)[C@H]1CC[C@H]2[C@]12C=C[C@H](O)C(C)(C)[C@H]1[C@H](O)[C@@]3(O)OC2 [CYD-6-90, (3S,4aS,5S,6S,6aR,9S,11aS,11bR,14R)-3,5,6,14-tetrahydroxy-4,4-dimethyl-8-methylene-4,4a,5,6,9,10,11,11a-octahydro-3H-6,11b-(epoxymethano)-6a,9-methanocyclohepta[a]naphthalen-7(8H)-one] |  |  |  |  | IC50 [1, 11]: 1.21 µM; IC50 [2, 12]: > 10 µM; IC50 [3, 13]: 26.1 µM; IC50 [4, 14]: > 10 µM
